Laboratory results: patent US10231967B2, “Compounds and their use as BACE inhibitors” (ASTRAZENECA AB, priority 2010, dated 2019)

Test system: sAPPβ release in SH-SY5Y cells
Assay: sAPPβ release assay
Assay type: cell-based
Details: Homo sapiens, SH-SY5Y, 17 h, compounds incubated 17 h, MSD detection
How it was run: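 SH-SY5Y cells were exposed to compounds at 1% DMSO final for 17 h at 37 °C. Secreted sAPPβ in 20 μL of medium was quantified by MSD electrochemiluminescence immunoassay with 1 nM detection antibody. Cell plates were then used in an ATP assay for cytotoxicity.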

Structure (SMILES) | IC50 [nM]
[2H]C([2H])([2H])O[C@H]1CC[C@]2(CC1)Cc1ccc(Br)cc1C21N=C(C)C(N)=N1 (stereo partly drawn) [Example 117, (1r,4r)-6′-Bromo-5″-methyl-4-[(^2H3)methyloxy]-3′H-dispiro[cyclohexane-1,2′-indene-1′,2″-imidazol]-4″-amine] | 47
CC#Cc1cccc(-c2ccc3c(c2)C2(N=C(C)C(N)=N2)[C@]2(CC[C@H](OC)CC2)C3)c1Cl (stereo partly drawn) [Example 123, (1r,4r)-6′-[2-Chloro-3-(prop-1-yn-1-yl)phenyl]-4-methoxy-5″-methyl-3′H-dispiro[cyclohexane-1,2′-indene-1′,2″-imidazol]-4″-amine] | 135

Now from value to molecule:

IC50 [nM] | Structure (SMILES)
0.14 | [2H]C([2H])([2H])C#Cc1cncc(-c2ccc3c(c2)[C@@]2(N=C(C)C(N)=N2)[C@]2(CC[C@H](OC)CC2)C3)c1 [Example 114, (1r,1′R,4R)-4-Methoxy-5″-methyl-6′-{5-[(^2H3)prop-1-yn-1-yl]pyridin-3-yl}-3′H-dispiro[cyclohexane-1,2′-indene-1′,2″-imidazol]-4″-amine]
12 | CO[C@H]1CC[C@]2(CC1)Cc1ccc(-c3cnc4[nH]cc(C)c4c3)cc1C21N=C(C)C(N)=N1 (stereo partly drawn) [Example 116, (1r,4r)-4-Methoxy-5″-methyl-6′-(3-methyl-1H-pyrrolo[2,3-b]pyridin-5-yl)-3′H-dispiro[cyclohexane-1,2′-indene-1′,2″-imidazol]-4″-amine]
2.8 | [2H]C([2H])([2H])O[C@H]1CC[C@]2(CC1)Cc1ccc(-c3cc(F)cc(C#N)c3)cc1C21N=C(C)C(N)=N1 (stereo partly drawn) [Example 118, 3-{(1r,4r)-4″-Amino-5″-methyl-4-[(^2H3)methyloxy]-3′H-dispiro[cyclohexane-1,2′-indene-1′,2″-imidazol]-6′-yl}-5-fluorobenzonitrile]
0.97 | [2H]C([2H])([2H])O[C@H]1CC[C@]2(CC1)Cc1ccc(-c3cncc(Cl)c3)cc1C21N=C(C)C(N)=N1 (stereo partly drawn) [Example 119, (1r,4r)-6′-(5-Chloropyridin-3-yl)-5′-methyl-4-[(^2H3)methyloxy]-3′H-dispiro[cyclohexane-1,2′-indene-1′,2″-imidazol]-4″-amine]
10 | CO[C@H]1CC[C@]2(CC1)Cc1ccc(-c3ccc4[nH]cc(C)c4c3)cc1C21N=C(C)C(N)=N1 (stereo partly drawn) [Example 121, (1r,4r)-4-Methoxy-5″-methyl-6′-(3-methyl-1H-indol-5-yl)-3′H-dispiro[cyclohexane-1,2′-indene-1′,2″-imidazol]-4″-amine]
0.5 | [2H]C([2H])([2H])O[C@H]1CC[C@]2(CC1)Cc1ccc(-c3cc(Cl)cc(C#N)c3)cc1C21N=C(C)C(N)=N1 (stereo partly drawn) [Example 125, 3-{(1r,4r)-4″-Amino-5″-methyl-4-[(^2H3)methyloxy]-3′H-dispiro[cyclohexane-1,2′-indene-1′,2″-imidazol]-6′-yl}-5-chlorobenzonitrile]
1.4 | CO[C@H]1CC[C@]2(CC1)Cc1ccc(OCC3CCC3)cc1C21N=C(C)C(N)=N1 (stereo partly drawn) [Example 126, (1r,4r)-6′-(Cyclobutylmethoxy)-4-methoxy-5″-methyl-3′H-dispiro[cyclohexane-1,2′-indene-1′,2″-imidazol]-4″-amine]

Same assay, conditions: Homo sapiens, compounds incubated 17 h, MSD detection

IC50 [nM] | Structure (SMILES)
293 | CC1=NC2(N=C1N)c1cc(-c3cc(F)cc(C#N)c3)ccc1CC21CCC(=O)CC1 (stereo not drawn) [Example 115, 3-(4″-Amino-5″-methyl-4-oxodispiro[cyclohexane-1,2′-[1H]indene-1′(3′H),2″-[2H]imidazol]-6′-yl)-5-fluorobenzonitrile]
3.1 | CO[C@H]1CC[C@]2(CC1)Cc1ccc(-c3cncc(C(F)F)c3)cc1C21N=C(C)C(N)=N1 (stereo partly drawn) [Example 120, (1r,4r)-6′-[5-(Difluoromethyl)pyridin-3-yl]-4-methoxy-5″-methyl-3′H-dispiro[cyclohexane-1,2′-indene-1′,2″-imidazol]-4″-amine]
6950 | CC1=NC2(N=C1N)c1cc(Br)ccc1CC21CCC(C(F)(F)F)CC1 (stereo not drawn) [Example 124, 6′-Bromo-5″-methyl-4-(trifluoromethyl)-3′H-dispiro[cyclohexane-1,2′-indene-1′,2″-imidazol]-4″-amine]
